Source: patent US8815852B2, “Carbamoyloxy arylalkan arylpiperazine analgesics” (SK Biopharmaceuticals Co., Ltd., priority 2007, dated 2014)
Where two headings read alike, the source gives them in different places.

Key:
5-HT2A receptor = 5-HT2A receptor (Rattus norvegicus (Rat), UniProt P14842); test: Binding to 5-HT2A receptor ([3H]-Ketanserin, rat cortical membranes); parameters: species or system Sprague-Dawley (SD) rats; conditions: for IC50: 0.5 nM [3H]-Ketanserin, read-out: 5-HT2A: IC50 (Concentration required to be 50% suppressed)
Protocol: Binding to 5-HT2A Receptor
6-week-old Sprague-Dawley (SD) rats were anesthetized in an ether container for 5 minutes, brains were separated from rats, and cortical regions were then separated from the brains of the rats. The cortical regions of the rats were put into a Tris-HCl buffer solution (50 mM, pH 7.7) and homogenized, and the homogenate was centrifuged twice at 4° C. at a rotary speed of 50,000 g to obtain a precipitate (membrane protein). The precipitate was put into a buffer solution, and homogenized, which was used later as a protein source. 0.5 nM [3H]-Ketanserin was used as a radioactive isotope, and 10 uM serotonin was used to remove non-specific bindings. 25 ul of the compound, 100 ul of an aqueous radioactive isotope solution, and 100 ul of the protein source were put together, and kept at 25° C. for 1 hour. The resulting mixture was filtered with a membrane filter in a 96-well harvester when the 96-well plate reaction was completed. The competitivity of the compound to [3H]-Ketanserin was determined by taking the membrane filter and measuring the radioactivity in a scintillation counter, and an IC50 value was determined by measuring the increasing concentration of the compound. The specific reaction of the compound accounted for 90% or more. The general experiments were carried out according to the method by Leysen et al. (1982, Eur. J. Pharmacol).

5-HT1A receptor = 5-HT1A receptor (Rattus norvegicus (Rat), UniProt P19327); test: Binding to 5-HT1A receptor ([3H]-8-OH-DPAT, rat cortical membranes); parameters: species or system Sprague-Dawley (SD) rats; conditions: for IC50: 2 nM [3H]-8-OH-DPAT, read-out: 5-HT1A: IC50 (Concentration required to be 50% suppressed)
Protocol: Binding to 5-HT1A Receptor
6-week-old Sprague-Dawley (SD) rats were anesthetized in an ether container for 5 minutes, brains were separated from rats, and cortical regions were then separated from the brains of the rats. The cortical regions of the rats were put into a Tris-HCl buffer solution (50 mM, pH 7.4) and homogenized, and the homogenate was centrifuged twice at 4? at a rotary speed of 50,000 g to obtain a precipitate (membrane protein). The precipitate was put into a buffer solution, and homogenized, which was used later as a protein source. 2 nM [3H]-8-OH-DPAT was used as a radioactive isotope, and 10 uM serotonin was used to remove non-specific bindings. 25 ul of the compound, 100 ul of an aqueous radioactive isotope solution, and 100 ul of the protein source were put together, and kept at 25° C. for 1 hour. The resulting mixture was filtered with a membrane filter in a 96-well harvester when the 96-well plate reaction was completed. The competitivity of the compound to [3H]-8-OH-DPAT was determined by taking the membrane filter and measuring the radioactivity of the membrane filter in a scintillation counter, and an IC50 value was determined by measuring the increasing concentration of the compound. The specific reaction of the compound accounted for 90% or more. The general experiments were carried out according to the method by Middlemiss et al. (1984, Eur. J. Pharmacol.).

male ICR mouse = test: Acetic acid-induced writhing test in mouse; type: in vivo; conditions: for inhibition in vivo at 10 mg/kg / ED50: Mus musculus; for inhibition in vivo at 10 mg/kg: 1 h, read-out: AA Writhing: Suppression ratio of Pain response; for ED50: unit not given (method doses in mg/kg), read-out: AA Writhing: ED50
Protocol: 2. Acetic Acid-Induced Writhing Test in Mouse
An acetic acid-induced writhing test is one of models for measuring an analgesic effect of drugs. A test material dissolved in a suitable vehicle was orally administered to a male ICR mouse weighing 30 to 35 g at an amount of 10 mg/kg. After 1 hour of the oral administration, […] of an aqueous 0.8% acetic acid solution was intraperitoneally injected into the male ICR mouse to induce the abdominal pain of the male ICR mouse. Right after the administration of acetic acid, the male ICR mouse was put into an empty cage, and the number of writhing behaviors of the mice was counted for 10 minutes. The term “writhing represents a reflex action in which the mouse overtly extends its abdomen by stretching its hind legs due to the abdominal pain. The analgesic effect of the test material is represented by the ‘suppression ratio of pain response’ {[(Writhing number of Vehicle-administered group−Writhing number of Test material-administered group)/(Writhing number of Vehicle-administered group)]×100%} or 50% of Effective amount (ED50 (median effective dose); an amount of test material that is required to suppress 50% of pain behaviors) of Test material. The ED50 (median effective dose) was determined by calculating the suppression ratio of pain response in at least three doses of test materials and subjecting to the linear regression.

[1] = po, at 10 po (method: 10 mg/kg oral, 1 hour before acetic acid)

Chain of 5-HT2A receptor (P14842 whole entry): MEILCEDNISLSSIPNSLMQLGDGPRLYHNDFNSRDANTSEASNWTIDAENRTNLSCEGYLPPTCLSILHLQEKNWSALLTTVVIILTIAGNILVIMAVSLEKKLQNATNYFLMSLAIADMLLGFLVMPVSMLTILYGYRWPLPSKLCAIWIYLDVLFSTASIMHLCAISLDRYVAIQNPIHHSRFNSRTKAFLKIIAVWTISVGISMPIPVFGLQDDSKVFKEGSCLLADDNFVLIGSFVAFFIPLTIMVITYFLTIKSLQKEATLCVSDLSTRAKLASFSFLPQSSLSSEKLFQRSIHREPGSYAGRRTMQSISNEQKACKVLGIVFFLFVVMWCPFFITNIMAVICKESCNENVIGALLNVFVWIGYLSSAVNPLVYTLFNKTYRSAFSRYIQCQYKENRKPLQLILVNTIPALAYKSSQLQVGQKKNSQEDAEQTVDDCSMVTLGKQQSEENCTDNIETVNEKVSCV
Chain of 5-HT1A receptor (P19327 whole entry): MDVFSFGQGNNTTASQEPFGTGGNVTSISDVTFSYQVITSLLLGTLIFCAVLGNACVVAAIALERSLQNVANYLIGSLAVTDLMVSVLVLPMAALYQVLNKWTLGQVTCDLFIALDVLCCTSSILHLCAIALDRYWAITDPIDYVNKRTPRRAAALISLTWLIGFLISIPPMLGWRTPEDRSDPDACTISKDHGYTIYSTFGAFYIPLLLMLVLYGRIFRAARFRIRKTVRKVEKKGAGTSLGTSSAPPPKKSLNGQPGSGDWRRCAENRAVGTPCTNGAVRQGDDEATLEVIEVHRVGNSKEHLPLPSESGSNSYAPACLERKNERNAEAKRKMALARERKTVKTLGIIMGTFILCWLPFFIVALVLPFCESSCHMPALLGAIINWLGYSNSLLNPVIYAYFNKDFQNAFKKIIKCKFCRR

Which IC50 (5-HT2A receptor) does the source give for `COc1ccccc1N1CCN(CCCC(OC(N)=O)c2ccccc2)CC1` (centres unmarked) [Example 95, Carbamic acid 4-[4-(2-methoxy-phenyl)-piperazin-1-yl]-1-phenyl-butyl ester] here?
Its IC50 is 1500 nM.

What about the IC50 (5-HT1A receptor) of the same compound?
The IC50 was 5.82 nM.

How did the IC50 (5-HT2A receptor) turn out when `NC(=O)OC(CCCN1CCN(c2ccccn2)CC1)c1ccccc1` (centres unmarked) [Example 96, Carbamic acid 1-phenyl-4-(4-pyridin-2-yl-piperazin-1-yl)-butyl ester] was run?
The IC50 was 3140 nM.

And the IC50 (5-HT1A receptor)?
Its IC50 is 20.4 nM.

`NC(=O)OC(CCN1CCN(c2cccc(C(F)(F)F)c2)CC1)c1ccccc1` (centres unmarked) [Example 39, Carbamic acid 1-phenyl-3-[4-(3-trifluoromethyl-phenyl)-piperazin-1-yl]-propyl ester] was tested. Which IC50 (5-HT2A receptor) did it give?
Its IC50 is 660 nM.

And the IC50 (5-HT1A receptor)?
The IC50 was 12.6 nM.

Which results are given for `Cc1ccc(C(CCN2CCN(c3ccccc3)CC2)OC(N)=O)cc1` (centres unmarked) [Example 10, Carbamic acid 3-(4-phenyl-piperazin-1-yl)-1-p-tolyl-propyl ester]?
inhibition at 1 µM (5-HT2A receptor; 1 h, read-out: 5-HT2A: Suppression): 85.6%; inhibition at 1 µM (5-HT1A receptor; 1 h, at 1 uM, read-out: 5-HT1A: Suppression): 59.6%

How did the IC50 (5-HT2A receptor) turn out when `NC(=O)OC(CCN1CCN(c2ccc(Cl)cc2)CC1)c1ccccc1` (centres unmarked) [Example 22, Carbamic acid 3-[4-(4-chloro-phenyl)-piperazin-1-yl]-1-phenyl-propyl ester] was run?
Its IC50 is 264 nM.

And the IC50 (5-HT1A receptor)?
Its IC50 is 1860 nM.

`COc1cccc(N2CCN(CCC(OC(N)=O)c3ccccc3)CC2)c1` (centres unmarked) [Example 26, Carbamic acid 3-[4-(3-methoxy-phenyl)-piperazin-1-yl]-1-phenyl-propyl ester] was tested. Which IC50 (5-HT2A receptor) did it give?
Its IC50 is 502 nM.

And the IC50 (5-HT1A receptor)?
Its IC50 is 80.8 nM.

Which results are given for `NC(=O)OC(CCCN1CCN(c2ncccc2Cl)CC1)c1ccccc1` (centres unmarked) [Example 97, Carbamic acid 4-[4-(3-chloro-pyridin-2-yl)-piperazin-1-yl]-1-phenyl-butyl ester]?
IC50 (5-HT2A receptor): 519 nM; IC50 (5-HT1A receptor): 181 nM

For `NC(=O)OC(CCN1CCN(c2ccccn2)CC1)c1ccccc1` (centres unmarked) [Example 25, Carbamic acid 1-phenyl-3-(4-pyridin-2-yl-piperazin-1-yl)-propyl ester], which IC50 (5-HT2A receptor) is on record?
Its IC50 is 448 nM.

And the IC50 (5-HT1A receptor)?
The IC50 was 338 nM.

How did the inhibition in vivo at 10 mg/kg (male ICR mouse; [1]) turn out when `Cc1ccc(N2CCN(C(C)CC(OC(N)=O)c3ccccc3)CC2)cc1C` (centres unmarked) [Example 111, Carbamic acid 3-[4-(3,4-dimethyl-phenyl)-piperazin-1-yl]-1-phenyl-butyl ester] was run?
Its inhibition in vivo at 10 mg/kg is 95%.

How did the inhibition in vivo at 10 mg/kg (male ICR mouse; [1]) turn out when `COc1ccc(N2CCN(CCC(OC(N)=O)c3cccc([N+](=O)[O-])c3)CC2)cc1` (centres unmarked) [Example 65, Carbamic acid 3-[4-(4-methoxy-phenyl)-piperazin-1-yl]-1-(3-nitro-phenyl)-propyl ester] was run?
Its inhibition in vivo at 10 mg/kg is 39%.

Which inhibition in vivo at 10 mg/kg (male ICR mouse; [1]) does the source give for `COc1ccc(N2CCN(CCC(OC(N)=O)c3ccc(C)c(C)c3)CC2)cc1` (centres unmarked) [Example 61, Carbamic acid 1-(3,4-dimethyl-phenyl)-3-[4-(4-methoxy-phenyl)-piperazin-1-yl]-propyl ester] here?
Its inhibition in vivo at 10 mg/kg is 58%.

How did the inhibition in vivo at 10 mg/kg (male ICR mouse; [1]) turn out when `NC(=O)OC(CCN1CCN(c2ccc(OC3CCCC3)cc2)CC1)c1ccccc1` (centres unmarked) [Example 87, Carbamic acid 3-[4-(4-cyclopentyloxy-phenyl)-piperazin-1-yl]-1-phenyl-propyl ester] was run?
Its inhibition in vivo at 10 mg/kg is 58%.

How did the “AA Writhing: Suppression ratio of Pain response” value (male ICR mouse; at 10 po (method: 10 mg/kg oral, 1 hour before acetic acid)) turn out when `COc1ccc(N2CCN(CCC(OC(N)=O)c3ccccc3F)CC2)cc1` (centres unmarked) [Example 69, Carbamic acid 1-(2-fluoro-phenyl)-3-[4-(4-methoxy-phenyl)-piperazin-1-yl]-propyl ester] was run?
Its value is 57%.

With `NC(=O)OC(CCN1CCN(c2ncccn2)CC1)c1ccccc1` (centres unmarked) [Example 34, Carbamic acid 1-phenyl-3-(4-pyrimidin-2-yl-piperazin-1-yl)-propyl ester] as the compound, how does the inhibition in vivo at 10 mg/kg (male ICR mouse; [1]) read?
The inhibition in vivo at 10 mg/kg was 21%.

`CCOC(=O)Oc1ccc(N2CCN(CCC(OC(N)=O)c3ccc(F)cc3)CC2)cc1` (centres unmarked) [Example 90, Carbonic acid 4-{4-[3-carbamoyloxy-3-(4-fluoro-phenyl)-propyl]-piperazin-1-yl}-phenyl ethyl ester] was tested. Which ED50 (male ICR mouse; po) did it give?
The ED50 was 23.4 mg/kg.

For `COc1ccc(N2CCN(CCC(OC(N)=O)c3cccc(Cl)c3)CC2)cc1` (centres unmarked) [Example 45, Carbamic acid 1-(3-chloro-phenyl)-3-[4-(4-methoxy-phenyl)-piperazin-1-yl]-propyl ester], which inhibition in vivo at 10 mg/kg (male ICR mouse; [1]) is on record?
Its inhibition in vivo at 10 mg/kg is 62%.

`CC(CC(OC(N)=O)c1ccccc1)N1CCN(c2ccc(Cl)cc2)CC1` (centres unmarked) [Example 109, Carbamic acid 3-[4-(4-chloro-phenyl)-piperazin-1-yl]-1-phenyl-butyl ester] was tested. Which inhibition in vivo at 10 mg/kg (male ICR mouse; [1]) did it give?
The inhibition in vivo at 10 mg/kg was 84%.

`COc1ccc(N2CCN(CCC(OC(N)=O)c3ccccc3C(F)(F)F)CC2)cc1` (centres unmarked) [Example 51, Carbamic acid 3-[4-(4-methoxy-phenyl)-piperazin-1-yl]-1-(2-trifluoromethyl-phenyl)-propyl ester] was tested. Which inhibition in vivo at 10 mg/kg (male ICR mouse; [1]) did it give?
Its inhibition in vivo at 10 mg/kg is 95%.

`Cc1cccc(N2CCN(CCC(OC(N)=O)c3ccccc3)CC2)c1` (centres unmarked) [Example 24, Carbamic acid 1-phenyl-3-(4-m-tolylpiperazin-1-yl)-propyl ester] was tested. Which ED50 (male ICR mouse; ip) did it give?
The ED50 was 0.81 mg/kg.

For `COc1ccc(N2CCN(C(C)CC(OC(N)=O)c3ccccc3)CC2)cc1OC` (centres unmarked) [Example 113, Carbamic acid 3-[4-(3,4-dimethoxy-phenyl)-piperazin-1-yl]-1-phenyl-butyl ester], which inhibition in vivo at 10 mg/kg (male ICR mouse; [1]) is on record?
Its inhibition in vivo at 10 mg/kg is 57%.

`NC(=O)OC(CCN1CCN(c2ccc(O)cc2)CC1)c1ccc(Cl)c(C(F)(F)F)c1` (centres unmarked) [Example 72, Carbamic acid 1-(4-chloro-3-trifluoromethyl-phenyl)-3-[4-(4-hydroxy-phenyl)-piperazin-1-yl]-propyl ester] was tested. Which inhibition in vivo at 10 mg/kg (male ICR mouse; [1]) did it give?
Its inhibition in vivo at 10 mg/kg is 53%.

For `COc1cc(OC)cc(N2CCN(CCC(OC(N)=O)c3ccccc3)CC2)c1` (centres unmarked) [Example 33, Carbamic acid 3-[4-(3,5-dimethoxy-phenyl)-piperazin-1-yl]-1-phenyl-propyl ester], which inhibition in vivo at 10 mg/kg (male ICR mouse; [1]) is on record?
The inhibition in vivo at 10 mg/kg was 13%.

With `CCOc1ccccc1N1CCN(CCC(OC(N)=O)c2ccc(F)cc2)CC1` (centres unmarked) [Example 74, Carbamic acid 3-[4-(2-ethoxy-phenyl)-piperazin-1-yl]-1-(4-fluoro-phenyl)-propyl ester] as the compound, how does the inhibition in vivo at 10 mg/kg (male ICR mouse; [1]) read?
Its inhibition in vivo at 10 mg/kg is 44%.

With `COc1ccc(N2CCN(CCC(OC(N)=O)c3cccc(C)c3)CC2)cc1` (centres unmarked) [Example 57, Carbamic acid 3-[4-(4-methoxy-phenyl)-piperazin-1-yl]-1-m-tolyl-propyl ester] as the compound, how does the inhibition in vivo at 10 mg/kg (male ICR mouse; [1]) read?
Its inhibition in vivo at 10 mg/kg is 52%.

How did the inhibition in vivo at 10 mg/kg (male ICR mouse; [1]) turn out when `CC(CC(OC(N)=O)c1ccccc1)N1CCN(c2ccc([N+](=O)[O-])cc2)CC1` (centres unmarked) [Example 110, Carbamic acid 3-[4-(4-nitro-phenyl)-piperazin-1-yl]-1-phenyl-butyl ester] was run?
The inhibition in vivo at 10 mg/kg was 17%.

For `COc1ccc(N2CCN(CCC(OC(N)=O)c3cccc(F)c3)CC2)cc1` (centres unmarked) [Example 53, Carbamic acid 1-(3-fluoro-phenyl)-3-[4-(4-methoxy-phenyl)-piperazin-1-yl]-propyl ester], which inhibition in vivo at 10 mg/kg (male ICR mouse; [1]) is on record?
Its inhibition in vivo at 10 mg/kg is 57%.

How did the inhibition in vivo at 10 mg/kg (male ICR mouse; [1]) turn out when `COc1ccc(N2CCN(CCC(OC(N)=O)c3cccc4ccccc34)CC2)cc1` (centres unmarked) [Example 55, Carbamic acid 3-[4-(4-methoxy-phenyl)-piperazin-1-yl]-1-naphthalen-1-yl-propyl ester] was run?
Its inhibition in vivo at 10 mg/kg is 16%.
